Laboratory results reported in patent publication US20100029617A1, “1,4,5,6,7,8-HEXAHYDRO-1,2,5-TRIAZA-AZULENE DERIVATIVES AS OREXIN RECEPTOR ANTAGONISTS” (Actelion Pharmaceuticals Ltd., priority 2006, published 2010).
pIC50: −log10 of the molar value. Like-named read-outs stand apart in the source and are kept apart here.

Tests used:
[1] = molecular target: T1, human orexin-2 receptor (Homo sapiens, UniProt O43614); test: Intracellular calcium measurements (FLIPR), orexin receptor antagonistic activity; assay type: cell-based; conditions: read-out: IC50 OX2
T1 construct: expressed in transfected cells; host or cells: CHO cells (G418 selection)
T1 sequence (O43614 1-444): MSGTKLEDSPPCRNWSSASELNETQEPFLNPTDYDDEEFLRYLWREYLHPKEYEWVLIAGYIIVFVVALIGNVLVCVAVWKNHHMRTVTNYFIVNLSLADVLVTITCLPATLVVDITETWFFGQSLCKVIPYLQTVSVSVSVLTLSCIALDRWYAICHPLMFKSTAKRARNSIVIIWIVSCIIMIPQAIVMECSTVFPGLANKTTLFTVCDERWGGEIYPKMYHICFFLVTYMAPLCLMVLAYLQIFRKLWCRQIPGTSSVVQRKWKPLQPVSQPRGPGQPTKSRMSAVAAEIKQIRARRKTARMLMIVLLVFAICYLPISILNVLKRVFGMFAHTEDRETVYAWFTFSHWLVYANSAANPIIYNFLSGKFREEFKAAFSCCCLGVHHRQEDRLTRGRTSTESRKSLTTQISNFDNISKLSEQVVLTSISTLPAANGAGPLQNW
Method: (§1) The orexin receptor antagonistic activity of the compounds of formula (II) is determined in accordance with the following experimental method.
(§2) Intracellular Calcium Measurements:
(§3) Chinese hamster ovary (CHO) cells expressing the human orexin-1 receptor and the human orexin-2 receptor, respectively, are grown in culture medium (Ham F-12 with L-Glutamine) containing 300 μg/ml G418, 100 U/ml penicillin, 100 μg/ml streptomycin and 10% inactivated fetal calf serum (FCS). The cells are seeded at 80'000 cells/well into 96-well black clear bottom sterile plates (Costar) which have been precoated with 1% gelatine in Hanks' Balanced Salt Solution (HBSS). All reagents are from Gibco BRL. The seeded plates are incubated overnight at 37° C. in 5% CO2.
(§4) Human orexin-A as an agonist is prepared as 1 mM stock solution in methanol:water (1:1), diluted in HBSS containing 0.1% bovine serum albumin (BSA) and 2 mM HEPES for use in the assay at a final concentration of 10 nM.
(§5) Antagonists are prepared as 10 mM stock solution in DMSO, then diluted in 96-well plates, first in DMSO, then in HBSS containing 0.1% bovine serum albumin (BSA) and 2 mM HEPES.
(§6) On the day of the assay, 100 μl of loading medium (HBSS containing 1% FCS, 2 mM HEPES, 5 mM probenecid (Sigma) and 3 μM of the fluorescent calcium indicator fluo-3 AM (1 mM stock solution in DMSO with 10% pluronic acid) (Molecular Probes) is added to each well.
(§7) The 96-well plates are incubated for 60 min at 37° C. in 5% CO2. The loading solution is then aspirated and cells are washed 3 times with 200 μl HBSS containing 2.5 mM probenecid, 0.1% BSA, 2 mM HEPES. 100 μl of that same buffer is left in each well.
(§8) Within the Fluorescent Imaging Plate Reader (FLIPR, Molecular Devices), antagonists are added to the plate in a volume of 50 μl, incubated for 20 min and finally 100 μl of agonist is added. Fluorescence is measured for each well at 1 second intervals, and the height of each fluorescence peak is compared to the height of the fluorescence peak induced by 10 nM orexin-A with buffer in place of antagonist.

[2] = molecular target: T2, human orexin-1 receptor (Homo sapiens, UniProt O43613); test: as above; assay type: cell-based; conditions: CHO cells expressing human orexin-1 receptor; agonist 10 nM human orexin-A; fluo-3 calcium signal; read-out: IC50 OX1
T2 construct: expressed in transfected cells; host or cells: CHO cells (G418 selection)
T2 sequence (O43613 1-425): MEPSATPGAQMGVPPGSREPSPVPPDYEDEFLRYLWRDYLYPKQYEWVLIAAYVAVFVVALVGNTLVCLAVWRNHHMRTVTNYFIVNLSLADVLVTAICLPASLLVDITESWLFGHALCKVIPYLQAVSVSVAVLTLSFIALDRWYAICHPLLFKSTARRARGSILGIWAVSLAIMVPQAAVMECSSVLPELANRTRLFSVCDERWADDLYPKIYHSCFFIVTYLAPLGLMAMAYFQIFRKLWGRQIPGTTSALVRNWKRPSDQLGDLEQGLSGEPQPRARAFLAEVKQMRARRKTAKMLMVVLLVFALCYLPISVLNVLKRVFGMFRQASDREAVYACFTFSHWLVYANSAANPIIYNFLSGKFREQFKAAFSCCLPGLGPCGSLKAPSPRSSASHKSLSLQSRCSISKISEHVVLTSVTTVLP
Method: as §1, §2, §3, §4, §5, §6, §7, §8

[3] = CHO cells expressing human orexin-2 receptor, agonist 10 nM human orexin-A, fluo-3 calcium signal

pIC50 [1, 3] | pIC50 [2] | pIC50 [1] | Structure (SMILES)
7.92 | 7.66 |  | CCn1nc(C)c2c1CCCN([C@@H](C(=O)NC)c1ccccc1)[C@H]2CCc1cc(F)c(C(F)(F)F)c(F)c1 [Example 1 (4S;2′R), (R)-2′-{(S)-4-[2-(3,5-difluoro-4-trifluoromethyl-phenyl)-ethyl]-1-ethyl-3-methyl-4,6,7,8-tetrahydro-1H-1,2,5-triaza-azulen-5-yl}-N-methyl-2′-phenyl-acetamide]
8.22 | 7.44 |  | CCn1nc(C)c2c1CCCN([C@@H](C(=O)NC)c1ccccc1)[C@H]2CCc1ccc(C)c(C)c1 [Example 2 (4S;2′R), (R)-2′-{(S)-4-[2-(3,4-dimethyl-phenyl)-ethyl]-1-ethyl-3-methyl-4,6,7,8-tetrahydro-1H-1,2,5-triaza-azulen-5-yl}-N-methyl-2′-phenyl-acetamide]
7.74 | 6.86 |  | CCn1nc(C)c2c1CCCN([C@@H](C(=O)NC)c1ccccc1)[C@H]2CCc1ccc(C(F)(F)F)cc1F [Example 3 (4S;2′R), (R)-2′-{1-ethyl-(S)-4-[2-(2-fluoro-4-trifluoromethyl-phenyl)-ethyl]-3-methyl-4,6,7,8-tetrahydro-1H-1,2,5-triaza-azulen-5-yl}-N-methyl-2′-phenyl-acetamide]
 | 7.59 | 8.22 | CCn1nc(C)c2c1CCCN([C@@H](C(=O)NC)c1ccccc1)[C@H]2CCc1cc(F)c(C)c(F)c1 [Example 4 (4S;2′R), (R)-2′-{(S)-4-[2-(3,5-difluoro-4-methyl-phenyl)-ethyl]-1-ethyl-3-methyl-4,6,7,8-tetrahydro-1H-1,2,5-triaza-azulen-5-yl}-N-methyl-2′-phenyl-acetamide]
